From ChEMBL document CHEMBL3400119, “Triazole-containing N-acyl homoserine lactones targeting the quorum sensing system in Pseudomonas aeruginosa” (Bioorg Med Chem, 2015)
Active and inactive are the calls of the source. The calls are words filed in the database; no cut-off is given here.

Experiments:
[1] = Antagonist activity at luxI in Escherichia coli harboring luxI-gfp gene assessed as inhibition of 3-oxo-C6-HSL-induced quorum sensing by green fluorescence protein reporter assay
[2] = Agonist activity at lasB in Escherichia coli harboring lasB-gfp gene by green fluorescence protein reporter assay
Pseudomonas aeruginosa = assay: (§1) Antagonist activity at rhlA in Pseudomonas aeruginosa harboring rhlA-gfp gene assessed as inhibition of […]-induced quorum sensing by green fluorescence protein reporter assay
[3] = as §1
[4] = target: Elastase (Pseudomonas aeruginosa (strain ATCC 15692 / PAO1 / 1C / PRS 101 / LMG12228)) (UniProt P14756); assay: Antagonist activity at lasB in Pseudomonas aeruginosa harboring lasB-gfp gene assessed as inhibition of […]-induced quorum sensing by green fluorescence protein reporter assay
Elastase (Pseudomonas aeruginosa (strain ATCC 15692 / PAO1 / 1C / PRS 101 / LMG12228)), sequence (P14756 198-498 limits assumed): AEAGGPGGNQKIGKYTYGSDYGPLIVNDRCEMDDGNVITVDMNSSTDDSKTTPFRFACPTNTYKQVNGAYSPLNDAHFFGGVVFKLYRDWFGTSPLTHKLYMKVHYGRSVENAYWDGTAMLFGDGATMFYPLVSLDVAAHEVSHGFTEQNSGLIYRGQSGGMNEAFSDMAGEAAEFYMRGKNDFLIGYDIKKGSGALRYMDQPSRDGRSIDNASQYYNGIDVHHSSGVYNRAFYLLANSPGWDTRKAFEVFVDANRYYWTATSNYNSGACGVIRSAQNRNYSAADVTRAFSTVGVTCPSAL

## O=C(Cn1cc(CSc2ccccc2)nn1)N[C@H]1CCOC1=O
[1]
  IC50: 602 µM
[2]
  EC50: 2 µM
Pseudomonas aeruginosa
  inhibition: inactive

## CCCc1cn(CC(=O)N[C@H]2CCOC2=O)nn1
[1]
  IC50: 71 µM
[3]
  IC50: 927 µM

## Nc1ccc(-n2cc(-c3ccc(C(=O)N[C@H]4CCOC4=O)cc3)nn2)cc1
[1]
  IC50: 95 µM
[4]
  inhibition: inactive
Pseudomonas aeruginosa
  inhibition: inactive

## CCCCc1cn(CC(=O)N[C@H]2CCOC2=O)nn1
[1]
  IC50: 751 µM
[4]
  inhibition: inactive
[2]
  EC50: 57 µM
Pseudomonas aeruginosa
  inhibition: inactive

## CCCCCCc1cn(CC(=O)N[C@H]2CCOC2=O)nn1
[1]
  IC50: 578 µM
[2]
  EC50: 12 µM
Pseudomonas aeruginosa
  inhibition: inactive

## O=C(Cn1cc(C2CCCC2)nn1)N[C@H]1CCOC1=O
[1]
  IC50: 50 µM
[2]
  EC50: 3 µM
[3]
  IC50: 898 µM

## O=C(Cn1cc(-c2ccsc2)nn1)N[C@H]1CCOC1=O
[1]
  IC50: 55 µM
[3]
  IC50: 1030 µM

## O=C(Cn1cc(C2CCCCC2)nn1)N[C@H]1CCOC1=O
[1]
  IC50: 342 µM
[2]
  EC50: 44 µM
Pseudomonas aeruginosa
  inhibition: inactive

## O=C(Cn1cc(CC2CCCCC2)nn1)N[C@H]1CCOC1=O
[2]
  EC50: 8 µM

## [N-]=[N+]=Nc1ccc(C(=O)N[C@H]2CCOC2=O)cc1
[1]
  IC50: 244 µM
Pseudomonas aeruginosa
  inhibition: inactive

## [N-]=[N+]=Nc1cccc(C(=O)N[C@H]2CCOC2=O)c1
[1]
  IC50: 223 µM
[4]
  inhibition: inactive
Pseudomonas aeruginosa
  inhibition: inactive

## O=C(Cn1cc(-c2ccccc2)nn1)N[C@H]1CCOC1=O
[1]
  IC50: 192 µM
[4]
  inhibition: inactive
Pseudomonas aeruginosa
  inhibition: inactive

## Nc1cccc(-n2cc(CCC(=O)N[C@H]3CCOC3=O)nn2)c1
[2]
  EC50: 2 µM

## O=C(Cn1cc(C2CC2)nn1)N[C@H]1CCOC1=O
[1]
  IC50: 88 µM
[3]
  IC50: 799 µM

## CCCCCc1cn(CC(=O)N[C@H]2CCOC2=O)nn1
[2]
  EC50: 1 µM

## O=Cc1cccc(-n2cc(CCC(=O)N[C@H]3CCOC3=O)nn2)c1
[1]
  IC50: 5 µM
[2]
  EC50: 71 µM
Pseudomonas aeruginosa
  inhibition: inactive
